Laboratory results as given in the OPERA property sets (Mansouri et al. 2018).

| logP | SMILES |
| --- | --- |
| 0.67 | CC(=O)NNC(=O)Nc1cccc([N+](=O)[O-])c1 |
| 1.33 | CC(=O)NNC(=O)Nc1cccc(Cl)c1 |
| 1.59 | CC(=O)NNC(=O)Nc1cccc(C(F)(F)F)c1 |
| 0.11 | CC(=O)NNC(=O)Nc1ccc(N(C)C)cc1 |
| -0.79 | CC(=O)NNC(=O)Nc1ccc(O)cc1 |
| 0.67 | CC(=O)NNC(=O)Nc1ccc(C)cc1 |
| 0.33 | COc1cccc(NC(=O)NNC(C)=O)c1 |

The remaining lines, values behind:

| SMILES | logP |
| --- | --- |
| CC(=O)NNC(=O)Nc1cccc(C)c1 | 0.75 |
| CC(=O)NNC(=O)Nc1ccc(C#N)cc1 | 0.38 |
| CC(=O)NNC(=O)Nc1ccc(Cl)cc1 | 1.12 |
| CC(=O)NNC(=O)Nc1cccc(Br)c1 | 1.48 |
| CC(=O)NNC(=O)Nc1ccc(Br)cc1 | 1.38 |
| CC(=O)NNC(=O)Nc1cccc(F)c1 | 0.73 |
| CC(=O)NNC(=O)Nc1ccc(C(C)(C)C)cc1 | 2.08 |
| CC(=O)NNC(=O)Nc1ccc(I)cc1 | 1.65 |
| CC(=O)NNC(=O)Nc1ccc(Oc2ccccc2)cc1 | 2.01 |
| CC(=O)NNC(=O)Nc1ccc([N+](=O)[O-])cc1 | 0.77 |
| CC(=O)NNC(=O)Nc1ccccc1 | 0.25 |
| COc1ccc(NC(=O)NNC(C)=O)cc1 | 0.11 |
| CCOc1ccc(NC(=O)NNC(C)=O)cc1 | 0.51 |
| CC(=O)NNC(=O)Nc1ccc(F)cc1 | 0.45 |
| CC(=O)NNC(=O)Nc1cccc(I)c1 | 1.71 |
